Test results as given in the CheMixHub viscosity set.

Assay: xn = mol fraction of the nth substance listed

CC(O)C(C)O (stereo not given) + O
viscosity [mPa·s]
Details | 303.15 K | 308.15 K | 313.15 K | 318.15 K | 323.15 K
101 kPa, x1 = 0.01 | 0.943 | 0.842 | 0.759 | 0.69 | 0.632
101 kPa, x1 = 0.0199 | 1.108 | 0.982 | 0.877 | 0.792 | 0.719
101 kPa, x1 = 0.03 | 1.294 | 1.138 | 1.01 | 0.905 | 0.816
101 kPa, x1 = 0.0399 | 1.506 | 1.312 | 1.155 | – | 0.919
101 kPa, x1 = 0.0499 | 1.733 | 1.498 | 1.308 | 1.155 | 1.028
101 kPa, x1 = 0.0601 | 1.985 | 1.7 | 1.471 | 1.292 | 1.145
101 kPa, x1 = 0.0699 | 2.242 | 1.91 | 1.649 | 1.436 | 1.264
101 kPa, x1 = 0.08 | 2.53 | 2.135 | 1.826 | 1.586 | 1.39
101 kPa, x1 = 0.0899 | 2.79 | 2.345 | 1.998 | 1.724 | 1.503
101 kPa, x1 = 0.1 | 3.084 | 2.571 | 2.182 | 1.868 | 1.622
101.3 kPa, x1 = 0.1176 | – | 3.174 | 2.627 | 2.203 | –
101.3 kPa, x1 = 0.2307 | – | 6.873 | 5.405 | 4.363 | –
101.3 kPa, x1 = 0.3181 | – | 10.06 | 7.822 | 6.198 | –
101.3 kPa, x1 = 0.4443 | – | 15.66 | 11.92 | 9.192 | –
101.3 kPa, x1 = 0.5311 | – | 20.41 | 15.17 | 11.64 | –
101.3 kPa, x1 = 0.6427 | – | 27.5 | 20.24 | 15.02 | –
101.3 kPa, x1 = 0.8275 | – | 41.68 | 29.62 | 21.32 | –
101.3 kPa, x2 = 0.3539 | – | 12.95 | – | – | –

O=C(O)c1ccccc1C(=O)O + CO
viscosity [mPa·s]
Details | 308.15 K | 313.15 K | 318.15 K | 323.15 K
101 kPa, x1 = 0.0453 | 0.916 | – | – | 0.7018
101 kPa, x1 = 0.0538 | 1.001 | – | – | 0.79
101 kPa, x1 = 0.0598 | 1.085 | – | – | 0.8526
101 kPa, x1 = 0.0666 | 1.226 | – | – | 0.906
101.33 kPa, x1 = 0.0453 | 0.916 | 0.8445 | 0.777 | 0.718
101.33 kPa, x1 = 0.06 | 1.085 | 1.009 | 0.9326 | 0.8526

Cc1ccc(S(=O)(=O)[O-])cc1.[Na+] + O
viscosity [mPa·s], 101 kPa
Details | x1 = 9e-05 | x1 = 0.00018 | x1 = 0.0009 | x1 = 0.0018 | x1 = 0.00448 | x1 = 0.00893 | x1 = 0.0133 | x1 = 0.0177
298.15 K | 0.899 | 0.9 | 0.916 | 0.941 | 1.002 | 1.113 | 1.235 | 1.368
318.15 K | 0.598 | 0.599 | 0.609 | 0.626 | 0.661 | 0.728 | 0.799 | 0.879

Cc1ccc(C)cc1 + CCOC(C)=O
Details | viscosity [mPa·s]
298.15 K, 101 kPa, x2 = 0.044 | 0.601
298.15 K, 101 kPa, x2 = 0.1503 | 0.572
298.15 K, 101 kPa, x2 = 0.2506 | 0.547
298.15 K, 101 kPa, x2 = 0.3502 | 0.525
298.15 K, 101 kPa, x2 = 0.4374 | 0.507
298.15 K, 101 kPa, x2 = 0.4986 | 0.496
298.15 K, 101 kPa, x2 = 0.5505 | 0.487
298.15 K, 101 kPa, x2 = 0.6473 | 0.472
298.15 K, 101 kPa, x2 = 0.7519 | 0.457
298.15 K, 101 kPa, x2 = 0.8485 | 0.444
298.15 K, 101 kPa, x2 = 0.9426 | 0.434
303.15 K, 101.32 kPa, x2 = 0.0624 | 0.555
303.15 K, 101.32 kPa, x2 = 0.1828 | 0.534
303.15 K, 101.32 kPa, x2 = 0.2938 | 0.516
303.15 K, 101.32 kPa, x2 = 0.4031 | 0.498
303.15 K, 101.32 kPa, x2 = 0.5056 | 0.481
303.15 K, 101.32 kPa, x2 = 0.552 | 0.474
303.15 K, 101.32 kPa, x2 = 0.6041 | 0.465
303.15 K, 101.32 kPa, x2 = 0.6976 | 0.45
303.15 K, 101.32 kPa, x2 = 0.7887 | 0.436
303.15 K, 101.32 kPa, x2 = 0.8757 | 0.423
303.15 K, 101.32 kPa, x2 = 0.9585 | 0.411
308.15 K, 101 kPa, x2 = 0.044 | 0.527
308.15 K, 101 kPa, x2 = 0.1503 | 0.506
308.15 K, 101 kPa, x2 = 0.2506 | 0.488
308.15 K, 101 kPa, x2 = 0.3502 | 0.471
308.15 K, 101 kPa, x2 = 0.4374 | 0.457
308.15 K, 101 kPa, x2 = 0.4986 | 0.448
308.15 K, 101 kPa, x2 = 0.5505 | 0.44
308.15 K, 101 kPa, x2 = 0.6473 | 0.427
308.15 K, 101 kPa, x2 = 0.7519 | 0.414
308.15 K, 101 kPa, x2 = 0.8485 | 0.403
308.15 K, 101 kPa, x2 = 0.9426 | 0.393
313.15 K, 101.32 kPa, x2 = 0.2063 | 0.481
313.15 K, 101.32 kPa, x2 = 0.4077 | 0.45
313.15 K, 101.32 kPa, x2 = 0.5061 | 0.435
313.15 K, 101.32 kPa, x2 = 0.5991 | 0.423
313.15 K, 101.32 kPa, x2 = 0.8016 | 0.395

NCCO.O=CO + O
viscosity [mPa·s], 101 kPa
Details | x1 = 0.0088 | x1 = 0.0186 | x2 = 0.8561 | x2 = 0.8993 | x2 = 0.9327 | x2 = 0.9591 | x2 = 0.9712
293.15 K | 1.23 | 1.29 | 3.936 | 2.814 | 2.172 | 1.842 | 1.482
298.15 K | 1.08 | 1.17 | 3.51 | 2.52 | 1.914 | 1.614 | 1.35
303.15 K | 0.99 | 1.05 | 3.12 | 2.28 | 1.716 | 1.386 | 1.23

CC(F)F + FCC(F)(F)F
viscosity [mPa·s], 101 kPa
Details | x1 = 0.259 | x1 = 0.5 | x1 = 0.75
298.15 K | 0.1801 | 0.1772 | 0.1647
313.15 K | 0.1504 | 0.1444 | 0.1397

Fc1ccccc1 + CC(=O)OCCC(C)C
viscosity [mPa·s], 101 kPa
Details | x2 = 0.0669 | x2 = 0.1372 | x2 = 0.2148 | x2 = 0.2975 | x2 = 0.3897 | x2 = 0.4843 | x2 = 0.5939 | x2 = 0.713 | x2 = 0.8486
303.15 K | 0.541 | 0.565 | 0.591 | 0.613 | 0.637 | 0.661 | 0.682 | 0.706 | 0.727
313.15 K | 0.48 | 0.501 | 0.524 | 0.543 | 0.561 | 0.579 | 0.597 | 0.613 | 0.629

COC(=O)OCC(F)(F)F + CC1COC(=O)O1
298.15 K, 100 kPa
Details | viscosity [mPa·s]
x2 = 0.0999 | 1.13
x2 = 0.2012 | 1.26
x2 = 0.3 | 1.38
x2 = 0.3991 | 1.51
x2 = 0.5012 | 1.66
x2 = 0.6016 | 1.82
x2 = 0.699 | 2
x2 = 0.7994 | 2.18
x2 = 0.9002 | 2.36

O=[N+]([O-])[O-].O=[N+]([O-])[O-].[Sr+2] + O
viscosity [mPa·s], 100 kPa
Details | x1 = 0.004 | x1 = 0.009 | x1 = 0.02 | x1 = 0.04 | x1 = 0.05
298.15 K | 0.9435 | 1.029 | 1.226 | 1.628 | 2.52
323.15 K | 0.589 | 0.639 | 0.775 | 1.012 | 1.524
